{
  "source": "patent US9919941B2",
  "about": "“Multiple uses of amine salts for industrial water treatment” (AMSA, Inc., priority 2012, dated 2018)",
  "key": {"[1]": {"test_system": "sessile microbial population (biofilm on stainless steel washers)", "assay": "time-kill biocidal efficacy, hybrid planktonic-sessile procedure: sessile population", "assay_type": "cell-based, natural mixed aerobic microbial population", "details": "10 ppm Compound B, others equimolar; for reduction in the total sessile population: 110 minutes; for Sessile, 20-24 h, % of Control / Sessile, 48-54 h, % of Control / Sessile, 120 h, % of Control / Sessile CFU/, 20-24 h / Sessile CFU/, 48-54 h / Sessile CFU/, 120 h / Sessile CFU/, Total / Sessile, Total, % of Control / activity at 10 ppm: exposure 110 minutes; for Sessile CFU/, 20-24 h / Sessile CFU/, 48-54 h / Sessile CFU/, 120 h / Sessile CFU/, Total: per washer", "description": "An experiment was conducted to assess biocidal effectiveness of Compounds A and B and their respective Compounds 13 and 1 anion analogs. Time-kill tests were conducted using a hybrid planktonic-sessile procedure which allowed assessment of biocidal effectiveness against both planktonic and sessile microbial populations. A natural mixed aerobic microbial population in samples collected from an operating cooling tower was used as inoculum for the test. Biocide test concentration for Compound B was 10 ppm. All other products were tested at the equivalent molar concentration. Biocide exposure was 110 minutes. The following procedure was used which generally followed the biocidal testing method of Walter, R. W. and Cooke, L. […] A New Multifunctional Biocide Which Enhances Corrosion Inhibition,” NACE Paper 410, 1997. A water sample was collected from a cooling tower that contained a natural mixed population of microorganisms that grew at different rates when plated on Petrifilm. The populations of cells that grew on Petrifilm in 20-24 hours, 48-54 hours and at 120 hours were treated as separate populations. […] The washers were allowed seven days to develop a biofilm on their surface. Prior to chemical treatment, 10 mL aliquots of the CTW were removed from the beaker and placed into individual exposure test tubes along with a single washer. Test compounds were then added to the individual tubes at equimolar concentrations. All exposure tests including untreated controls were conducted in triplicate (i.e., three washers in separate exposure tubes). After addition of the test compound, the tube was briefly mixed by mild vortexing and again occasionally throughout the exposure time. Washer sonication to release organisms not released by the chemical treatment: […], the washer was removed from the tube, dipped 10 times in Letheen broth, then placed into a 9 mL tube of sterile Butterfields buffer, and sonicated for 8 minutes. Determination of cell population removed from washers by sonication: After the tube with washer was sonicated, a 1 mL aliquot was plated onto petrifilm and a serial dilution in Butterfields Buffer was performed with each dilution being plated to petrifilm. Determination of colony forming units (CFU) at different incubation times: After plating the various solutions on Petrifilm, the films were incubated at 36° C. for the first 24 hours. At 20 hours the […] read and CFU were recorded. This population was defined as a fast growing population. The […] then incubated for additional time either at 36° C. or room temperature and read at 54 hours. This second population is in addition to the fast growth rate population and was defined as moderate growth rate organisms. Incubation was continued and the […] again after 120 hours. This third population was also treated as separate from the fast and moderate growth rate populations and is referred to as the slow growth rate population. As noted above, each compound was evaluated in triplicate with three separate washers and the results were averaged. Average CFU/mL values were used to calculate total planktonic test population (CFU/10 mL) and total sessile test population (CFU/washer) in each test system."}, "[2]": {"assay": "copper corrosion inhibition, ASTM G31-72 coupon weight loss", "description": "(§1) Corrosion inhibition studies of various compounds of Formula (I) were conducted according to ASTM method G31-72 (2004). The following is the general test method.\n(§2) Aqueous solutions of the test compound (900 mL) were prepared with city water for mild steel corrosion studies or a dilute sea salt solution (1000 ppm in deionized water) for copper corrosion studies. The solutions were magnetically stirred at a constant rate in a 1 L beaker and three coupons of either mild steel or copper were suspended in each beaker. After 5 days (steel) or 7 days (copper), the coupons were removed and cleaned according to ASTM method G1-03. Average weight loss was determined for each set of three coupons and then converted to corrosion rate in terms of mils per year (mpy).\nThe first test of copper corrosion inhibition compared Compound A with Compound 13 (from Table 1), 2-hydroxypropane-1,2,3-tricarboxylic acid, and a commercial inhibitor, Na-TAI."}, "[3]": {"assay": "mild steel corrosion inhibition, ASTM G31-72 coupon weight loss", "description": "as §1, §2\nThese tests compare the corrosion inhibition of compounds of Formula (I), namely from Table 1, in the first set of comparisons, Compound A with Compound 13, and Compound B with Compound 1, and with 2-hydroxypropane-1,2,3-tricarboxylic acid. Thus five samples were tested relative to a blank and a standard, (1-hydroxyethan-1,1-diyl)bis(phosphonic acid), after 5 days at 26 μM concentrations. […] Concentrations were 26 μM.\nAdditional mild steel corrosion tests were performed at 130 μM concentration of compounds of Formula (I) and comparative compounds for 5 days. The next test compared the corrosion inhibition of Compound 8 with 2,3-dihydroxybutanedioic acid and Compound B, and Compound 4 with (1-hydroxyethan-1,1-diyl)bis(phosphonic acid) and Compound B. Also included was Compound 1 for reference. Concentrations in this set were 130 μM."}, "[4]": {"assay": "calcium carbonate scale inhibition (conductometric titration, supersaturation ratio Sr)", "description": "To a 100 mL beaker were added 60 mL of HPLC-grade water and 3 mL of 0.1 M calcium chloride. An appropriate amount (0.5-4 mL) of an aqueous solution of the inhibitor compound of Formula (I) to be tested was then added. The solution was magnetically stirred at a constant speed for all experiments. The sample was then titrated with 0.1 M sodium carbonate. After addition of each 0.2 mL aliquot of sodium carbonate titrant, the solution was mixed for 1 min and then the conductivity of the solution measured.\nAs titrant is added the conductivity increases in a linear fashion. When the supersaturation point is reached, the conductivity decreases and precipitation begins. This is considered the endpoint of the titration. The resulting titration endpoint volumes are used to calculate a relative supersaturation ratio (Sr). This is the ratio of the supersaturation of calcium carbonate in the presence of the compound of Formula (I) being tested to the value of the supersaturation of water without inhibitor (distilled water plus 3 mL of 0.1 M calcium chloride). Thus, compounds with Sr>1 are displaying scale inhibition.\nThe scale inhibition performance of various compounds of Formula (I) and comparative compounds were compared at the same molar concentration. These compounds were tested at 60 μM concentration except where noted otherwise. Compound numbers are from Table 1."}, "[5]": {"details": "130 μM, Table 5 (blank 12.5 mpy)"}, "[6]": {"details": "5 days, 130 μM, Table 4 (blank 24 mpy)"}},
  "note": "Several values for one entry are separate records, joined by “and”; a condition that tells them apart may be missing. Equal entries are not always repeated. Where two headings read alike, the source gives them in different places.",
  "data": [
    {"smiles": "CC(=O)O.CCCCCCCCCCOCCCN", "note": "[Compound B, ethanoic acid salt of aminopropyloxydecane]", "values": [
      {"measurement": "reduction in the total sessile population", "setting": "[1]", "result": 80, "unit": "%"},
      {"measurement": "Sessile, 20-24 h, % of Control", "setting": "[1]; 20-24 h incubation", "result": 92.8, "unit": "%"},
      {"measurement": "Sessile, 48-54 h, % of Control", "setting": "[1]; 48-54 h incubation", "result": 6.0, "unit": "%"},
      {"measurement": "Sessile, 120 h, % of Control", "setting": "[1]; 120 h incubation", "result": 37.7, "unit": "%"},
      {"measurement": "Sessile CFU/, 20-24 h", "setting": "[1]; 20-24 h incubation", "result": 207, "unit": "CFU/"},
      {"measurement": "Sessile CFU/, 48-54 h", "setting": "[1]; 48-54 h incubation", "result": "49,200 CFU/"},
      {"measurement": "Sessile CFU/, 120 h", "setting": "[1]; 120 h incubation", "result": "258,000 CFU/"},
      {"measurement": "Sessile CFU/, Total", "setting": "[1]; total population", "result": "307,000 CFU/"},
      {"measurement": "Sessile, Total, % of Control", "setting": "[1]; total population", "result": 20.3, "unit": "%"},
      {"measurement": "Inhibition relative to blank", "setting": "[2]; 42 μM, Table 7", "result": 32, "unit": "%"},
      {"measurement": "Inhibition relative to blank", "setting": "[3]; [5]", "result": "−1", "unit": "%"},
      {"measurement": "Inhibition relative to blank", "setting": "[3]; 5 days, 26 μM, Table 3, 26 µM", "result": "1.6% and 2%"},
      {"measurement": "Inhibition relative to blank", "setting": "[3]; [6]", "result": "−1", "unit": "%"},
      {"measurement": "Sr (supersaturation ratio)", "setting": "[4]; 60 μM", "result": 1.0},
      {"measurement": "scale inhibition (in words)", "setting": "[4]; about 60 μM", "result": "no scale inhibition"}
    ]},
    {"smiles": "CCCCCCCCCCOCCCN.O=C(O)CC(O)(CC(=O)O)C(=O)O", "note": "[Compound 1, 2-hydroxypropane-1,2,3-tricarboxylic acid salt of aminopropyloxydecane]", "values": [
      {"measurement": "Sessile, 20-24 h, % of Control", "setting": "[1]; 20-24 h incubation", "result": 104.9, "unit": "%"},
      {"measurement": "Sessile, 48-54 h, % of Control", "setting": "[1]; 48-54 h incubation", "result": 4.4, "unit": "%"},
      {"measurement": "Sessile, 120 h, % of Control", "setting": "[1]; 120 h incubation", "result": 38.7, "unit": "%"},
      {"measurement": "Sessile CFU/, 20-24 h", "setting": "[1]; 20-24 h incubation", "result": 234, "unit": "CFU/"},
      {"measurement": "Sessile CFU/, 48-54 h", "setting": "[1]; 48-54 h incubation", "result": "36,000 CFU/"},
      {"measurement": "Sessile CFU/, 120 h", "setting": "[1]; 120 h incubation", "result": "265,000 CFU/"},
      {"measurement": "Sessile CFU/, Total", "setting": "[1]; total population", "result": "301,000 CFU/"},
      {"measurement": "Sessile, Total, % of Control", "setting": "[1]; total population", "result": 19.9, "unit": "%"},
      {"measurement": "Inhibition relative to blank", "setting": "[2]; 42 μM, Table 7", "result": 54, "unit": "%"},
      {"measurement": "Inhibition relative to blank", "setting": "[3]; [5]", "result": 87, "unit": "%"},
      {"measurement": "Inhibition relative to blank", "setting": "[3]; 5 days, 26 μM, Table 3", "result": 60, "unit": "%"},
      {"measurement": "Inhibition relative to blank", "setting": "[3]; [6]", "result": 88, "unit": "%"},
      {"measurement": "Sr (supersaturation ratio)", "setting": "[4]; 60 μM", "result": 1.4}
    ]},
    {"smiles": "CCCCCCCCCCSCCN.Cl", "note": "[Compound A, 2-(decylthio)ethanamine hydrochloride]", "values": [
      {"measurement": "reduction in the total sessile population", "setting": "[1]", "result": 96, "unit": "%"},
      {"measurement": "activity at 10 ppm", "setting": "[1]; 20-24 h incubation, read-out: Sessile, 20-24 h, % of Control", "result": 182, "unit": "%"},
      {"measurement": "activity at 10 ppm", "setting": "[1]; 48-54 h incubation, read-out: Sessile, 48-54 h, % of Control", "result": 0.04, "unit": "%"},
      {"measurement": "activity at 10 ppm", "setting": "[1]; 110 min, total population, read-out: Sessile, Total, % of Control", "result": 4, "unit": "%"},
      {"measurement": "activity at 10 ppm", "setting": "[1]; 120 h incubation, read-out: Sessile, 120 h, % of Control", "result": 8.8, "unit": "%"},
      {"measurement": "Sessile CFU/, 20-24 h", "setting": "[1]; 20-24 h incubation", "result": 405, "unit": "CFU/"},
      {"measurement": "Sessile CFU/, 48-54 h", "setting": "[1]; 48-54 h incubation", "result": 360, "unit": "CFU/"},
      {"measurement": "Sessile CFU/, 120 h", "setting": "[1]; 120 h incubation", "result": "60,000 CFU/"},
      {"measurement": "Sessile CFU/, Total", "setting": "[1]; total population", "result": "60,800 CFU/"},
      {"measurement": "Inhibition relative to blank", "setting": "[2]; 7 days, 17 μM, Table 6", "result": 41, "unit": "%"},
      {"measurement": "Inhibition relative to blank", "setting": "[3]; 5 days, 26 μM, Table 3, hydrochloride", "result": "3.3% and 3%"},
      {"measurement": "Sr (supersaturation ratio)", "setting": "[4]; 60 μM", "result": 1.0},
      {"measurement": "Sr (supersaturation ratio)", "setting": "[4]; 64 μM", "result": 1.2}
    ]}
  ]
}
